How the values were obtained:
Type in all cases: cell-based
[1] = test system: human skin fibroblasts NB1-RGB cells; assay: Effect on promoting elastin production (Elastin Assay Kit); conditions: aged cells, 48 hours, normal cell = 1.00
Protocol: It is known that elastin is a fiber-like protein, which has a main function of crosslinking collagen, is present in the dermis of the skin, blood vessels, ligaments, and the like, and provides elasticity to the skin. The effect of a hydroxycitric acid derivative on elastin production was examined by the following method. The aged cells and normal, unprocessed cells which were produced in Example 1 were prepared at a seeding density of 4,000 cells/cm^2 and cultured for 24 hours in the DMEM medium containing 10% fetal bovine serum. The hydroxycitric acid derivatives according to the present invention which were dissolved in 50% ethanol to the final concentration of 0 μM (for a control), 0.01 μM, and 0.1 μM were added to the DMEM medium containing 10% fetal bovine serum, and culturing was performed for 48 hours. After that, cells were collected, elastin was extracted using Elastin Assay Kit manufactured by Biocolor Ltd., and an absorbance of the extracted solution was measured at a wavelength of 513 nm.

[2] = test system: human skin fibroblasts NB1-RGB cells; assay: Effect on mitochondrial function improvement (JC-1 red/green fluorescence, mitochondrial membrane potential); conditions: aged cells (600 μM hydrogen peroxide), specimen 10 μM, 48 hours; relative value with normal cells as 1
Protocol: The effect on mitochondrial function improvement in human skin fibroblasts NB1-RGB cells was measured under the following conditions using a mitochondrial membrane potential as an index. By performing an operation for 4 days in which confluent NB1-RGB cells were cultured for one hour in a DMEM medium containing 10% fetal bovine serum and 600 μM hydrogen peroxide solution, cells induced of artificial aging by oxidation were prepared as aged cells. These aged cells and normal, unprocessed cells were prepared at a seeding density of 4,000 cells/cm^2 and cultured for 24 hours in the DMEM medium containing 10% fetal bovine serum. […] After changing a medium to new assay solution supplied in Assay Kit, a fluorescence intensity of the living cells was measured at an excitation wavelength of 520 to 570 nm and a fluorescence wavelength of 570 to 610 nm, and the dead cells at an excitation wavelength of 485 nm and a fluorescence wavelength of 535 nm. In order to evaluate the state of mitochondrial membrane potential, red fluorescence intensity and green fluorescence intensity of a cell group to be measured were measured, and values of red fluorescence intensity divided by green fluorescence intensity were calculated, and their relative values, with a measured value of the normal cells as 1, are shown in Table 3. […]

[3] = test system: human skin fibroblasts NB1-RGB cells; assay: Measurement of cells in which apoptosis had been caused (JC-1 green fluorescence, mitochondrial membrane potential as index); conditions: aged cells (600 μM hydrogen peroxide), specimen 10 μM, 48 hours; relative value with normal cells as 1
Protocol: The effect on mitochondrial function improvement in human skin fibroblasts NB1-RGB cells was measured under the following conditions using a mitochondrial membrane potential as an index. By performing an operation for 4 days in which confluent NB1-RGB cells were cultured for one hour in a DMEM medium containing 10% fetal bovine serum and 600 μM hydrogen peroxide solution, cells induced of artificial aging by oxidation were prepared as aged cells. These aged cells and normal, unprocessed cells were prepared at a seeding density of 4,000 cells/cm^2 and cultured for 24 hours in the DMEM medium containing 10% fetal bovine serum. […] After changing a medium to new assay solution supplied in Assay Kit, a fluorescence intensity of the living cells was measured at an excitation wavelength of 520 to 570 nm and a fluorescence wavelength of 570 to 610 nm, and the dead cells at an excitation wavelength of 485 nm and a fluorescence wavelength of 535 nm. In order to obtain a ratio of dead cells in which apoptosis had been caused, only the green fluorescence intensity of a cell group to be measured was measured, and relative values, with a measured value of the normal cells as 1, are shown in Table 2.

Molecule: CCCCCCCCCCCCCC(=O)OC(CC(=O)O)(C(=O)O)C(O)C(=O)O (centres unmarked) [Hydroxycitric acid-2-myristate]
- Relative absorbance (513 nm) (elastin production) ([1]; specimen 0.01 μM): 0.93
- Relative absorbance (513 nm) (elastin production) ([1]; specimen 0.1 μM): 0.94
- Relative fluorescence intensity (red fluorescence intensity divided by green fluorescence intensity; effect on mitochondrial function improvement) [2]: 0.66
- Relative fluorescence intensity (green fluorescence of dead cells in which apoptosis had been caused) [3]: 1.13

Molecule: Hydroxycitric acid-2-palmitate
- Relative absorbance (513 nm) (elastin production) ([1]; specimen 0.01 μM): 1.11
- Relative absorbance (513 nm) (elastin production) ([1]; specimen 0.1 μM): 1.06
- Relative fluorescence intensity (red fluorescence intensity divided by green fluorescence intensity; effect on mitochondrial function improvement) [2]: 0.72
- Relative fluorescence intensity (green fluorescence of dead cells in which apoptosis had been caused) [3]: 1.04
